Test results reported in US12208092B2, “Compositions and methods for administering paltusotine to patients with hepatic impairment” (CRINETICS PHARMACEUTICALS, INC., priority 2023, dated 2025).

Test system: plasma GH
Experiment: suppression of plasma GH after rGHRH challenge in rat
Type: in vivo
Settings: rat studies (GH and IGF-1 suppression)
Protocol: The in vivo pharmacological efficacy of paltusotine has been examined in rat and dog. In the rat, acute efficacy was evaluated by examining the suppression of plasma GH in response to a challenge with rat growth hormone releasing hormone (rGHRH). […] The effects of chronic, oral, 14-day administration of paltusotine were evaluated by measuring the sustained suppression of IGF-1 in the rat.

Compound: C[C@@H](O)[C@@H]1NC(=O)[C@H](CCCCN)NC(=O)[C@@H](Cc2c[nH]c3ccccc23)NC(=O)[C@H](Cc2ccccc2)NC(=O)[C@@H](NC(=O)[C@H](N)Cc2ccccc2)CSSC[C@@H](C(=O)N[C@H](CO)[C@@H](C)O)NC1=O [Octreotide, reference compound]
- maximal effects as positive control: maximal effects similar to orally administered paltusotine
